The source of these data is patent US12371454B2, “Cyclic peptide compound having Kras inhibitory action” (priority 2019, dated 2025).

This test addresses T1, Kras and SOS1 (biotin-tagged human Kras loaded with GDP, His-tagged human SOS1) (Homo sapiens, UniProt P01116, G12D).
T1 construct: made in house; host or cells: E. coli (stated for Kras only)
Nature of the test: Protein-protein interaction inhibition between Kras and SOS1 (KrasGl2D-SOS PPI) using AlphaScreen. It is filed as binding. To be noted: AlphaScreen; biotin-tagged human Kras loaded with GDP, His-tagged human SOS1; read-out: KRAS G12D-SOS PPI IC50. The gist of the method: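 Read-out is acceptor-bead light at 520-620 nm, arising when 680 nm-irradiated nickel donor beads pass singlet oxygen to streptavidin acceptors. The bead pair links His-tagged SOS1 with biotin-tagged, GDP-bound Kras from E. coli.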
A general note: Bead proximity is the source of the signal in Alpha formats.

Structures are written as SMILES. Starred links: 1 amine or outer side, 2 acyl side, 3 side chain; linkers in the order of their positions; H or OH if unused. Positions of bridges follow the written chain, without caps; N, C: chain ends. Non-standard residues stand in square brackets, D forms with d. Residues, ends and D or L forms follow the SMILES beside them. *: point of attachment. hPhe(3-Cl-4-CF3) = N[C@@H](CCc1ccc(C(F)(F)F)c(Cl)c1)C(=O)O; NMeDab(N,N-(CH2CF2CH2)) = CN[C@@H](CCN1CC(F)(F)C1)C(=O)O; NMePhe(2-CF3) = CN[C@@H](Cc1ccccc1C(F)(F)F)C(=O)O; hPhe(4-CF3) = N[C@@H](CCc1ccc(C(F)(F)F)cc1)C(=O)O; NMeAla(4-thiazolyl) = CN[C@@H](Cc1cscn1)C(=O)O; NMePhe(4-Cl) = CN[C@@H](Cc1ccc(Cl)cc1)C(=O)O; NMePhe(4-F) = CN[C@@H](Cc1ccc(F)cc1)C(=O)O; X22 = O=C([C@@H]1Cc2ccccc2N1[*:1])[*:2]; NMeGly(cPent) = CN[C@H](C(=O)O)C1CCCC1; Phe(3-I) = N[C@@H](Cc1cccc(I)c1)C(=O)O; NMeY = CN[C@@H](Cc1ccc(O)cc1)C(=O)O; NMeCha = CN[C@@H](CC1CCCCC1)C(=O)O; NMehLeu = CN[C@@H](CCC(C)C)C(=O)O; NMeChg = CN[C@H](C(=O)O)C1CCCCC1; NMeF = CN[C@@H](Cc1ccccc1)C(=O)O; N(CH2CH2)2CF2 = FC1(F)CCN(*)CC1; NMeD = CN[C@@H](CC(=O)O)C(=O)O; NMeL = CN[C@@H](CC(C)C)C(=O)O; NMeV = CN[C@H](C(=O)O)C(C)C; Azetidin(1-yl) = C1CN(*)C1; NMeA = CN[C@@H](C)C(=O)O; Nle = CCCC[C@H](N)C(=O)O; Piperidide = C1CCN(*)CC1; Pyrrolidide = C1CCN(*)C1; Ac5c = NC1(C(=O)O)CCCC1; Aze = O=C(O)[C@@H]1CCN1; CF3 = FC(F)(F)*; Sar = CNCC(=O)O; Propyl = CCC*

T1 sequence (P01116 1-188 isoform P01116-2 G12D): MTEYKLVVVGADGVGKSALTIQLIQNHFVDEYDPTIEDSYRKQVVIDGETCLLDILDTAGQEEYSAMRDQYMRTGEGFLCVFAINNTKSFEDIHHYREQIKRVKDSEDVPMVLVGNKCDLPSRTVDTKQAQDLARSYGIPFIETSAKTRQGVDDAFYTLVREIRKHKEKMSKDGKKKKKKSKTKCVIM

As to `CC[C@H](C)[C@@H]1NC(=O)[C@H](CC(C)C)N(C)C(=O)C[C@@H](C(=O)N(C)C)N(C)C(=O)[C@H](C2CCCC2)N(C)C(=O)[C@H](C)NC(=O)[C@H](Cc2cscn2)N(C)C(=O)[C@H](CCc2ccc(C(F)(F)F)c(Cl)c2)NC(=O)CN(C)C(=O)[C@H](CC2CCCCC2)N(C)C(=O)[C@@H]2CCN2C(=O)[C@H](C)N(C)C1=O` [Compound 805] ([NMeL]I[NMeA][Aze][NMeCha][Sar][hPhe(3-Cl-4-CF3)][NMeAla(4-thiazolyl)]A[NMeGly(cPent)][NMeD]-NMe2; lactam N-11), the IC50 (in general, the concentration that gives 50% inhibition) is 38 nM.

In the case of `CC[C@H](C)[C@@H]1NC(=O)[C@H](CCC(C)C)N(C)C(=O)C[C@@H](C(=O)N2CCC2)N(C)C(=O)[C@H](C2CCCC2)N(C)C(=O)C2(CCCC2)NC(=O)[C@@H]2CCCN2C(=O)[C@H](CCc2ccc(C(F)(F)F)c(Cl)c2)NC(=O)CN(C)C(=O)[C@H](CC2CCCCC2)N(C)C(=O)[C@@H]2CCN2C(=O)[C@H](C)N(C)C1=O` [Compound 806] ([NMehLeu]I[NMeA][Aze][NMeCha][Sar][hPhe(3-Cl-4-CF3)]P[Ac5c][NMeGly(cPent)][NMeD]-{Azetidin(1-yl)}; lactam N-11), the IC50 was 1.1 nM.

As to `CC[C@H](C)[C@@H]1NC(=O)[C@H](C)N(C)C(=O)C[C@@H](C(=O)N2CCCC2)NC(=O)[C@H](CC(C)C)N(C)C(=O)[C@H](Cc2ccccc2)N(C)C(=O)[C@H](CC(C)C)NC(=O)[C@H](CCc2ccc(C(F)(F)F)cc2)NC(=O)CN(C)C(=O)[C@H](Cc2ccc(Cl)cc2)N(C)C(=O)CN(C)C(=O)CNC1=O` [Compound 808] ([NMeA]IG[Sar][NMePhe(4-Cl)][Sar][hPhe(4-CF3)]L[NMeF][NMeL]D-Pyrrolidide; lactam N-11), the IC50 was 99 nM.

`CC[C@H](C)[C@@H]1NC(=O)[C@H](CC(C)C)N(C)C(=O)C[C@@H](C(=O)N2CCCCC2)N(C)C(=O)[C@H](C2CCCCC2)N(C)C(=O)C2(CCCC2)NC(=O)[C@@H]2Cc3ccccc3N2C(=O)[C@H](CCc2ccc(C(F)(F)F)c(Cl)c2)NC(=O)CN(C)C(=O)[C@H](CC2CCCCC2)N(C)C(=O)[C@@H]2CCN2C(=O)[C@H](C)N(C)C1=O` [Compound 812] ([NMeL]I[NMeA][Aze][NMeCha][Sar][hPhe(3-Cl-4-CF3)][X22][Ac5c][NMeChg][NMeD]-Piperidide; lactam N-11): the IC50 is 36 nM.

With `CCCC[C@@H]1NC(=O)[C@H](Cc2cccc(I)c2)NC(=O)CN(C)C(=O)[C@H](Cc2ccc(Cl)cc2)N(C)C(=O)CN(C)C(=O)CN(C)C(=O)[C@H]([C@@H](C)CC)NC(=O)[C@H](CC(C)C)N(C)C(=O)C[C@@H](C(=O)N2CCCCC2)N(C)C(=O)[C@H](CC(C)C)NC(=O)[C@H](Cc2ccccc2C(F)(F)F)N(C)C1=O` [Compound 813] ([NMeL]I[Sar][Sar][NMePhe(4-Cl)][Sar][Phe(3-I)][Nle][NMePhe(2-CF3)]L[NMeD]-Piperidide; lactam N-11), the IC50 was determined as 69 nM.

Consider `CCCOC[C@@H]1NC(=O)[C@H](CCN2CC(F)(F)C2)N(C)C(=O)[C@H](CCc2ccc(C(F)(F)F)c(Cl)c2)NC(=O)CN(C)C(=O)[C@H](CC2CCCCC2)N(C)C(=O)[C@@H]2CCN2C(=O)[C@H](C)N(C)C(=O)[C@H]([C@@H](C)CC)NC(=O)[C@H](CC(C)C)N(C)C(=O)C[C@@H](C(=O)N(C)C)N(C)C(=O)[C@H](C2CCCC2)N(C)C1=O` [Compound 817] ([NMeL]I[NMeA][Aze][NMeCha][Sar][hPhe(3-Cl-4-CF3)][NMeDab(N,N-(CH2CF2CH2))]S(Propyl)[NMeGly(cPent)][NMeD]-NMe2; lactam N-11), for which the IC50 came out at 15 nM.

Take `CCCC[C@@H]1NC(=O)[C@H](Cc2cccc(I)c2)NC(=O)CN(C)C(=O)[C@H](Cc2ccc(Cl)cc2)N(C)C(=O)CN(C)C(=O)CN(C)C(=O)[C@H]([C@@H](C)CC)NC(=O)[C@H](CC(C)C)N(C)C(=O)C[C@@H](C(=O)N2CCCCC2)N(C)C(=O)[C@H](CC(C)C)NC(=O)[C@H](Cc2ccc(OC(F)(F)F)cc2)N(C)C1=O` [Compound 819] ([NMeL]I[Sar][Sar][NMePhe(4-Cl)][Sar][Phe(3-I)][Nle][NMeY](CF3)L[NMeD]-Piperidide; lactam N-11): the half-maximal inhibitory concentration (IC50) was determined as 53 nM.

Regarding `CC[C@H](C)[C@@H]1NC(=O)[C@H](C)N(C)C(=O)C[C@@H](C(=O)N2CCCCC2)N(C)C(=O)[C@H](C(C)C)N(C)C(=O)C2(CCCC2)NC(=O)[C@H](Cc2ccc(F)cc2)N(C)C(=O)[C@H](CCc2ccc(C(F)(F)F)c(Cl)c2)NC(=O)CN(C)C(=O)[C@H](CC2CCCCC2)N(C)C(=O)CN(C)C(=O)CN(C)C1=O` [Compound 821] ([NMeA]I[Sar][Sar][NMeCha][Sar][hPhe(3-Cl-4-CF3)][NMePhe(4-F)][Ac5c][NMeV][NMeD]-Piperidide; lactam N-11), the IC50 came out at 12 nM.

On to `CC[C@H](C)[C@@H]1NC(=O)[C@H](C)N(C)C(=O)C[C@@H](C(=O)N2CCCCC2)N(C)C(=O)[C@H](C(C)C)N(C)C(=O)[C@H](CC(C)C)NC(=O)[C@H](CC(=O)N2CCC(F)(F)CC2)N(C)C(=O)[C@H](CCc2ccc(C(F)(F)F)c(Cl)c2)NC(=O)CN(C)C(=O)[C@H](CC2CCCCC2)N(C)C(=O)CN(C)C(=O)CN(C)C1=O` [Compound 826] ([NMeA]I[Sar][Sar][NMeCha][Sar][hPhe(3-Cl-4-CF3)][NMeD](N(CH2CH2)2CF2)L[NMeV][NMeD]-Piperidide; lactam N-11), for which the half-inhibitory concentration (IC50) is 110 nM.
